We go through twelve compounds from patent US7700621B2, “6-alkenyl-, 6-alkinyl- and 6-epoxy-epothilone derivatives, process for their production, and their use in pharmaceutical preparations” (Bayer Schering Pharma Aktiengesellschaft, priority 1999, dated 2010).

One test has as its system multi-drug-resistant NCl/ADR-carcinoma cell line. Briefly: Growth inhibition of multi-drug-resistant NCl/ADR carcinoma cell line, crystal-violet assay. Conditions: ratio of IC50 NCl/ADR to IC50 MCF-7. In kind it is cell-based, human. From the text:
In Vitro Activity of Epothilone Derivatives on Human Tumor Cell Lines
a) IC50 values [nM] for the growth inhibition of human MCF-7-breast and multi-drug-resistant NCl/ADR-carcinoma cell lines of epothilone derivatives with 13Z-unsaturated in the crystal-violet assay in comparison to Taxol.
b) IC50 values [nM] for the growth inhibition of human MCF-7-breast- and multi-drug-resistant NCl/ADR carcinoma cell lines of epothilone derivative with 13,14-α-epoxide, which was formed from the 13-Z-configured double bond in the crystal-violet assay in comparison to Taxol.
c) IC50 values [nM] for the growth inhibition of human MCF-7-breast- and multi-drug-resistant NCl/ADR-carcinoma cell lines of epothilone derivatives with 13,14-epoxide, which was formed from the 13-E-configured double bond, in a crystal-violet assay in comparison to Taxol.
Regarding `C#CC[C@H]1C(=O)C(C)(C)[C@@H](O)CC(=O)O[C@H](/C(F)=C/c2csc(C)n2)C[C@@H]2O[C@]2(C)CCC[C@H](C)[C@@H]1O` [Example 25, (1S,3S(Z),7S,10R,11S,12S,16R)-7,11-Dihydroxy-3-(1-fluoro-2-(2-methyl-4-thiazolyl)ethenyl)-10-(prop-2-in-1-yl)-8,8,12,16-tetramethyl-4,17-dioxabicyclo[14.1.0]heptadecane-5,9-dione], the “Selectivity = IC50 (NCl/ADR) : IC50 (MCF-7)” value (“Selectivity = IC50 (NCl/ADR) ” below) was determined as 4.8.
With `C#CC[C@H]1C(=O)C(C)(C)[C@@H](O)CC(=O)O[C@H](/C(F)=C/c2csc(C)n2)C/C=C(/C)CCC[C@H](C)[C@@H]1O` [Example 23, (4S,7R,8S,9S,13Z,16S(Z))-4,8-Dihydroxy-16-(1-fluoro-2-(2-methylthiazol-4-yl)ethenyl)-7-(prop-2-in-1-yl)-1-oxa-5,5,9,13-tetramethyl-cyclohexadec-13-ene-2,6-dione], the “Selectivity = IC50 (NCl/ADR) ” value was determined as 5.6.
The same measure, in the same setting: the figure for `C#CC[C@H]1C(=O)C(C)(C)[C@@H](O)CC(=O)O[C@H](/C(F)=C/c2csc(C)n2)C[C@@H]2O[C@@]2(C)CCC[C@H](C)[C@@H]1O` [Example 26A or B] is 3.3; for `C=CC[C@H]1C(=O)C(C)(C)[C@@H](O)CC(=O)O[C@H](/C(C)=C/c2csc(C)n2)C[C@@H]2O[C@]2(C)CCC[C@H](C)[C@@H]1O` [Example 10A, (1S,3S(E),7S,10R,11S,12S,16R)-7,11-Dihydroxy-10-(prop-2-en-1-yl)-3-(1-methyl-2-(2-methylthiazol-4-yl)ethenyl)-8,8,12,16-tetramethyl-4,17-dioxabicyclo[14.1.0]heptadecane-5,9-dione] it is 3.0; for `C=CC[C@H]1C(=O)C(C)(C)[C@@H](O)CC(=O)O[C@H](/C(C)=C/c2csc(C)n2)C/C=C(/C)CCC[C@H](C)[C@@H]1O` [Example 9, (4S,7R,8S,9S,13Z,16S(E))-4,8-Dihydroxy-16-(1-methyl-2-(2-methylthiazol-4-yl)ethenyl)-1-oxa-5,5,9,13-tetramethyl-7-(prop-2-en-1-yl)-cyclohexadec-13-ene-2,6-dione] it is 2.4.
On the same count and under the same terms, the result for `C#CCC[C@H]1C(=O)C(C)(C)[C@@H](O)CC(=O)O[C@H](/C(C)=C/c2ccccn2)C[C@@H]2O[C@]2(C)CCC[C@H](C)[C@@H]1O` [Example 4A, (1S,3S(E),7S,10R,11S,12S,16R)-7,11-Dihydroxy-10-(but-3-in-1-yl)-3-(1-methyl-2-(2-pyridyl)ethenyl)-8,8,12,16-tetramethyl-4,17-dioxabicyclo[14.1.0]heptadecane-5,9-dione] reads 7.0; that for `C#CCC[C@H]1C(=O)C(C)(C)[C@@H](O)CC(=O)O[C@H](/C(C)=C/c2ccccn2)C/C=C(/C)CCC[C@H](C)[C@@H]1O` [Example 1, (4S,7R,8S,9S,13Z,16S(E))-4,8-Dihydroxy-16-(1-methyl-2-(2-pyridyl)ethenyl)-1-oxa-5,9,13-tetramethyl-7-(but-3-in-1-yl)-cyclohexadec-13-ene-2,6-dione], 2.5.
On the same count and under the same terms, the result for `C=CC[C@H]1C(=O)C(C)(C)[C@@H](O)CC(=O)O[C@H](/C(C)=C/c2csc(C)n2)C[C@H]2O[C@]2(C)CCC[C@H](C)[C@@H]1O` [Example 12A or B] reads 1.5.
On to `C=CCC[C@H]1C(=O)C(C)(C)[C@@H](O)CC(=O)O[C@H](/C(C)=C/c2ccccn2)C[C@@H]2O[C@]2(C)CCC[C@H](C)[C@@H]1O` [Example 5A, (1S,3S(E),7S,10R,11S,12S,16R)-7,11-Dihydroxy-10-(but-3-en-1-yl)-3-(1-methyl-2-(2-pyridyl)ethenyl)-8,8,12,16-tetramethyl-4,17-dioxabicyclo[14.1.0]heptadecane-5,9-dione], for which the “Selectivity = IC50 (NCl/ADR) ” value is 1.2.
As for `C=CCC[C@H]1C(=O)C(C)(C)[C@@H](O)CC(=O)O[C@H](/C(C)=C/c2ccccn2)C/C=C(/C)CCC[C@H](C)[C@@H]1O` [Example 2, (4S,7R,8S,9S,13Z,16S(E))-4,8-Dihydroxy-16-(1-methyl-2-(2-pyridyl)ethenyl)-1-oxa-5,5,9,13-tetramethyl-7-(but-3-en-1-yl)-cyclohexadec-13-ene-2,6-dione], the “Selectivity = IC50 (NCl/ADR) ” value turned out to be 2.8.
Consider `C#CC[C@H]1C(=O)C(C)(C)[C@@H](O)CC(=O)O[C@H](/C(F)=C/c2coc(C)n2)C/C=C(/C)CCC[C@H](C)[C@@H]1O` [Example 27, (4S,7R,8S,9S,13Z,16S(Z))-4,8-Dihydroxy-16-(1-fluoro-2-(2-methyloxazol-4-yl)ethenyl)-7-(prop-2-in-1-yl)-1-oxa-5,5,9,13-tetramethyl-cyclohexadec-13-ene-2,6-dione], for which the “Selectivity = IC50 (NCl/ADR) ” value is 1.6.

Staying with this test, now noted: statement in words, compared with Taxol.
Turning to `CC(=O)O[C@H]1C(=O)[C@@]2(C)[C@H]([C@H](OC(=O)c3ccccc3)[C@]3(O)C[C@H](OC(=O)[C@H](O)[C@@H](NC(=O)c4ccccc4)c4ccccc4)C(C)=C1C3(C)C)[C@]1(OC(C)=O)CO[C@@H]1C[C@@H]2O` [Taxol, reference compound], the “action on the multi-drug-resistant cell line NCl/ADR” value is on record as “not exhibited”.
